In ChEMBL document CHEMBL5291721, “A preclinical secondary pharmacology resource illuminates target-adverse drug reaction associations of marketed drugs” (Nat Commun, 2023) one finds AC50 data, which are given here for 13 molecules.

Structures are written as SMILES.

The target in one assay is Adenosine receptor A2a (Homo sapiens, UniProt P29274).
The target in assay [1] is Beta-2 adrenergic receptor (Homo sapiens, UniProt P07550).
Assay [2] deals with T1, Type-1 angiotensin II receptor (Homo sapiens, UniProt P30556).
T1 sequence (P30556 whole entry): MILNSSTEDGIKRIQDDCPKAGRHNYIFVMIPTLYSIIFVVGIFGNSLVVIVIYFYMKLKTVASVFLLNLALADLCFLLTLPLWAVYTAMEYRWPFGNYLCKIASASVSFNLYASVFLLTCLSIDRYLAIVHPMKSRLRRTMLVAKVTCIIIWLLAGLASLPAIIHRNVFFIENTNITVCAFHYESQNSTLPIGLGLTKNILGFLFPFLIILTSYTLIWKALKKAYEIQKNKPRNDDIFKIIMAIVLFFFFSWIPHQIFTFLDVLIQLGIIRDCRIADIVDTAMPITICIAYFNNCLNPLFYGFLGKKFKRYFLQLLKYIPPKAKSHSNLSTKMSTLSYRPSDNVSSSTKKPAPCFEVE

The target of assay [3] is T2, Muscarinic acetylcholine receptor M1 (Homo sapiens, UniProt P11229).
T2 sequence (P11229 whole entry): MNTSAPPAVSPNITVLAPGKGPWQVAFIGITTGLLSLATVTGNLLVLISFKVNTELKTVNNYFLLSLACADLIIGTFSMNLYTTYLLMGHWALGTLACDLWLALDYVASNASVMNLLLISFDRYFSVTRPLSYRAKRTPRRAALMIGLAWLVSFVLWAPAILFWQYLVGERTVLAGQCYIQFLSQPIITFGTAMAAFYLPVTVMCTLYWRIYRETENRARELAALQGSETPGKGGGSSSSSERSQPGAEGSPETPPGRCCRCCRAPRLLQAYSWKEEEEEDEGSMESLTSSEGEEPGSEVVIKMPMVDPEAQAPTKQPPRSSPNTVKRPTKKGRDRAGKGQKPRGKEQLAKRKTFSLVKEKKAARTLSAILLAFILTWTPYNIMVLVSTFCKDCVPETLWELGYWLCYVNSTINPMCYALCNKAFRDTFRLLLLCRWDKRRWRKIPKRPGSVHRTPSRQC
Type of assay: functional.

Assay [4] has as its target Growth hormone secretagogue receptor type 1 (Homo sapiens, UniProt Q92847).
The target in assay [5] is T3, 5-hydroxytryptamine receptor 3A (Homo sapiens, UniProt P46098).
T3 sequence (P46098 whole entry): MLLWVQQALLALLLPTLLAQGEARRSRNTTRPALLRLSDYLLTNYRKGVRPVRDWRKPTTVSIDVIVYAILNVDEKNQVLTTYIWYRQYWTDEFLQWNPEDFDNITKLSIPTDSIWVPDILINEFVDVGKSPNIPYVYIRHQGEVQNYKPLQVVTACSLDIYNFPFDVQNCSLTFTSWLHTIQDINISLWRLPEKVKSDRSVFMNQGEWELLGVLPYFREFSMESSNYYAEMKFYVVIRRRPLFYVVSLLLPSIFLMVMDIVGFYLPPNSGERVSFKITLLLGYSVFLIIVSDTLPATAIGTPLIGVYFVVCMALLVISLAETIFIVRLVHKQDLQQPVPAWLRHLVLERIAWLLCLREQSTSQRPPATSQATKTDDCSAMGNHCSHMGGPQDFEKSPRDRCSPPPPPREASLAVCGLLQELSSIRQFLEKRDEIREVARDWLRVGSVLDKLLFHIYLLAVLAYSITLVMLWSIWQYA
In kind it is functional.

In assay [6] the target is T4, Muscarinic acetylcholine receptor M2 (Homo sapiens, UniProt P08172).
T4 sequence (P08172 whole entry): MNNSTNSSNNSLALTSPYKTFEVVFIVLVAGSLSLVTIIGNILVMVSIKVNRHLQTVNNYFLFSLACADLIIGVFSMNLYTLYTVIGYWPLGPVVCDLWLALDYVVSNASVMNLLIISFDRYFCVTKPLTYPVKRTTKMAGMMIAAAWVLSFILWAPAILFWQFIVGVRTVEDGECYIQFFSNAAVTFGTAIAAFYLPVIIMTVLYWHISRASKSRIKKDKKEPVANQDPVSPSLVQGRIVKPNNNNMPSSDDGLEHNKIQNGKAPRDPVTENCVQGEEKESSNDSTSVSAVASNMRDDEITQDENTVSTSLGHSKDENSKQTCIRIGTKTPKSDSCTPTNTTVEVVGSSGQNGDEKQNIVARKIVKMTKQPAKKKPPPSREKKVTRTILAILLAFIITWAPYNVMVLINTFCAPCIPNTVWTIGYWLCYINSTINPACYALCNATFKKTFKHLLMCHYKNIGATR
Type of assay: functional, cell-based.

Assay [7] deals with Sodium-dependent dopamine transporter (Homo sapiens, UniProt Q01959).
Chain of Sodium-dependent dopamine transporter (Q01959 whole entry): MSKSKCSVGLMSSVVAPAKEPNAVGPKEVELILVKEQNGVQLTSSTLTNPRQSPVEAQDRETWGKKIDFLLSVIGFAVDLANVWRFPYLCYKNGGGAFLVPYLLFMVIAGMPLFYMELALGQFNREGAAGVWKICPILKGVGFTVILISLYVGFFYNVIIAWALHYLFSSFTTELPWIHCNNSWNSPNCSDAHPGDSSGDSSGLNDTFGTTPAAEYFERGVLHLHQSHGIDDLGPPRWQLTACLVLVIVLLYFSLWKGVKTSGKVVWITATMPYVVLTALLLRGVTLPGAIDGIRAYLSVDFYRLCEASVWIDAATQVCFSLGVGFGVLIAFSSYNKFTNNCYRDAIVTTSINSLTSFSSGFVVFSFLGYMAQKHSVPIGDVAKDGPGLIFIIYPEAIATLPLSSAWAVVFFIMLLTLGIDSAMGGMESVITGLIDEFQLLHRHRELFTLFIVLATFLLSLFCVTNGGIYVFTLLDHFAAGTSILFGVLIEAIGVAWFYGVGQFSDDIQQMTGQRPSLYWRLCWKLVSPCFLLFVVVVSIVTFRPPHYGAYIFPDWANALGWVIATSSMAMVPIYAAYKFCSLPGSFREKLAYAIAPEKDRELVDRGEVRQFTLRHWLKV
Assay [8] addresses Sodium-dependent noradrenaline transporter (Homo sapiens, UniProt P23975).
A further assay addresses Mu-type opioid receptor (Homo sapiens, UniProt P35372).
The target in assay [9] is cGMP-inhibited 3',5'-cyclic phosphodiesterase 3A (Homo sapiens, UniProt Q14432). In kind it is functional.
Chain of cGMP-inhibited 3',5'-cyclic phosphodiesterase 3A (Q14432 whole entry): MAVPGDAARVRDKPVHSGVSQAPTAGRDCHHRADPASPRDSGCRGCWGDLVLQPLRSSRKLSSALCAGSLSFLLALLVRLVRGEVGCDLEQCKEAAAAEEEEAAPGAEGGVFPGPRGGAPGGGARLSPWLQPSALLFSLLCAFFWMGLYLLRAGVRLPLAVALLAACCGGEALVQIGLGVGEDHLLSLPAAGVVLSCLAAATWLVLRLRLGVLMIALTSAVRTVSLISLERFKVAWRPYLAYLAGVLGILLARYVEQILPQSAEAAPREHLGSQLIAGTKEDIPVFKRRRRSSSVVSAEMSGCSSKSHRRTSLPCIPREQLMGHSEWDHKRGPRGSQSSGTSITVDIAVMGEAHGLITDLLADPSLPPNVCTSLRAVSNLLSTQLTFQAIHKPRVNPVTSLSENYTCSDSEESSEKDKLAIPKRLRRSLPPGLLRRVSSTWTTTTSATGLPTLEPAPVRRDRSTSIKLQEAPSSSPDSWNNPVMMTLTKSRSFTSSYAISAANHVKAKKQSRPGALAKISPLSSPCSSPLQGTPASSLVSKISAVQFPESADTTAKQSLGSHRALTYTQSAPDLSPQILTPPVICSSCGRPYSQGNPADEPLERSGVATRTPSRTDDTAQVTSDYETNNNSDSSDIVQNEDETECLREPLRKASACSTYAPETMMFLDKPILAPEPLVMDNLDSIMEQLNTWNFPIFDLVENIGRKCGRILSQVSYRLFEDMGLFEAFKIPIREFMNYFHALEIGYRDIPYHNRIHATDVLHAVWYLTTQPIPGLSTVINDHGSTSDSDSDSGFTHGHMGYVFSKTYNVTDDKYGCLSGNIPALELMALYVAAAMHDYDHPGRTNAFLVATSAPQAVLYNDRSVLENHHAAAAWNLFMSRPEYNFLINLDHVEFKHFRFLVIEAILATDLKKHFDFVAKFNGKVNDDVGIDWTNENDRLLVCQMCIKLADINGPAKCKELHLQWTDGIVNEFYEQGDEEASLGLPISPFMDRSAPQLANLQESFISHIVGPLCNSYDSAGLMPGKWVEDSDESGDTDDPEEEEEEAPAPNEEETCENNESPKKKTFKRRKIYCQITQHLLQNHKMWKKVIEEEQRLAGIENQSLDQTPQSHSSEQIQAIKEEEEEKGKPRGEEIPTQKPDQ
The target in another assay is T5, Thromboxane A2 receptor (Homo sapiens, UniProt P21731).
T5 sequence (P21731 whole entry): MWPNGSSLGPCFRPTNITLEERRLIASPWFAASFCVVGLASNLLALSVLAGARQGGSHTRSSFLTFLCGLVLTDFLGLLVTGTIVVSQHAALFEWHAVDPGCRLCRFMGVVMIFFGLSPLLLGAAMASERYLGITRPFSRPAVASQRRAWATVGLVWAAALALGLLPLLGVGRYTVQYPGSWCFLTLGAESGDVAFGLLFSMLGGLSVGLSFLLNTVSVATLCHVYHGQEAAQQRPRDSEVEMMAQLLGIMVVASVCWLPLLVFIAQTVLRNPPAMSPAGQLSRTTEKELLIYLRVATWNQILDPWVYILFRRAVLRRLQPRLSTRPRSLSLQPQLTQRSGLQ
In kind it is functional, cell-based.

The target in assay [10] is 5-hydroxytryptamine receptor 2A (Homo sapiens, UniProt P28223). Type of assay: functional, cell-based.
Chain of 5-hydroxytryptamine receptor 2A (P28223 whole entry): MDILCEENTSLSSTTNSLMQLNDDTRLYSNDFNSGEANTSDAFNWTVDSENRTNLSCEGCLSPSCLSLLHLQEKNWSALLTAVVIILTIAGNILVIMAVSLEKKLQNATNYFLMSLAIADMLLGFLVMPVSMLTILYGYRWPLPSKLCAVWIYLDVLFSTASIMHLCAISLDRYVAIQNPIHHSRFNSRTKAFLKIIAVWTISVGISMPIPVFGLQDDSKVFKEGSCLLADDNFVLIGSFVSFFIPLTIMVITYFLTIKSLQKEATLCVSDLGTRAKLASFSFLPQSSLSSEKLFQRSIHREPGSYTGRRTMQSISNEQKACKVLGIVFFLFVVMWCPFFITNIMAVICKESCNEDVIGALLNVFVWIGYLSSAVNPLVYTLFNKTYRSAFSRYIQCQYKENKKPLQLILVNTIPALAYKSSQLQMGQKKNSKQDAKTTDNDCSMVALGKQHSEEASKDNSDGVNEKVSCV
Also: assay procedure not described here.

Chain of Beta-2 adrenergic receptor (P07550 whole entry): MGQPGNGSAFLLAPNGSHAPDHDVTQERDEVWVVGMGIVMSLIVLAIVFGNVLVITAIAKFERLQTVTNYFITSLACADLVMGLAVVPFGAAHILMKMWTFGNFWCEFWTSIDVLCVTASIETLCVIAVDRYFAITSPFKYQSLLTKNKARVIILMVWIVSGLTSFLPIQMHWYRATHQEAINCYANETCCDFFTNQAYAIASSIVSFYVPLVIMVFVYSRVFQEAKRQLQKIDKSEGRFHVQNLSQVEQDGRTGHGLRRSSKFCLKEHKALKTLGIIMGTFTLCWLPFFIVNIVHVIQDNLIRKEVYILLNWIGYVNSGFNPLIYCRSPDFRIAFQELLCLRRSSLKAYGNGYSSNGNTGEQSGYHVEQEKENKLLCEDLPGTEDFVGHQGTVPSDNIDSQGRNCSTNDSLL
Chain of Adenosine receptor A2a (P29274 whole entry): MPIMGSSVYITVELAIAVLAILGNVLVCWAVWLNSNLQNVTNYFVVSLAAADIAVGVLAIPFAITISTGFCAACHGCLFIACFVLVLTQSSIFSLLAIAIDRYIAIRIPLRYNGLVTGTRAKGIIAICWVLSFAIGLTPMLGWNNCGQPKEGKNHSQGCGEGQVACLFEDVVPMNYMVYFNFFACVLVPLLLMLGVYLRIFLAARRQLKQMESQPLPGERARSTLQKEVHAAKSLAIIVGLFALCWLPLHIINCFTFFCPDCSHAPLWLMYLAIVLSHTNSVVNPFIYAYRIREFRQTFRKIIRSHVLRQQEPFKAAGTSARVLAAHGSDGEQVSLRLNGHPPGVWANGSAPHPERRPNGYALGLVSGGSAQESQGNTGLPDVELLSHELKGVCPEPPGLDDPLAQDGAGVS
Chain of Sodium-dependent noradrenaline transporter (P23975 whole entry): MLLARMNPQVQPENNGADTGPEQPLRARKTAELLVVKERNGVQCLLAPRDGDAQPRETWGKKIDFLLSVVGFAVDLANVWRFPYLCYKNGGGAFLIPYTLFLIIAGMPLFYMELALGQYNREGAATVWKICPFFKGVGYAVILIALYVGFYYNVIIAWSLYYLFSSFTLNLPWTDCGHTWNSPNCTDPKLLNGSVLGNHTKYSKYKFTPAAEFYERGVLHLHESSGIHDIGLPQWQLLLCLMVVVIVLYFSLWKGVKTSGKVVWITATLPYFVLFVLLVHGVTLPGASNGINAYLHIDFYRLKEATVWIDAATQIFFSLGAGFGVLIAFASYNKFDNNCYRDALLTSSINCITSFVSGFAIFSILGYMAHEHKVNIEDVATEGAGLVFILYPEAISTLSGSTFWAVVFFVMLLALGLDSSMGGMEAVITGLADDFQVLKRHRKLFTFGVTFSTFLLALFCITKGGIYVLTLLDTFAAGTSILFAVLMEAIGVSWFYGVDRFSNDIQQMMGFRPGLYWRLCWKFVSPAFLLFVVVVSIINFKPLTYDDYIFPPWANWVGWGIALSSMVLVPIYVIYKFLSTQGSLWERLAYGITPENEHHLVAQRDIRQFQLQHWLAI
Chain of Growth hormone secretagogue receptor type 1 (Q92847 whole entry): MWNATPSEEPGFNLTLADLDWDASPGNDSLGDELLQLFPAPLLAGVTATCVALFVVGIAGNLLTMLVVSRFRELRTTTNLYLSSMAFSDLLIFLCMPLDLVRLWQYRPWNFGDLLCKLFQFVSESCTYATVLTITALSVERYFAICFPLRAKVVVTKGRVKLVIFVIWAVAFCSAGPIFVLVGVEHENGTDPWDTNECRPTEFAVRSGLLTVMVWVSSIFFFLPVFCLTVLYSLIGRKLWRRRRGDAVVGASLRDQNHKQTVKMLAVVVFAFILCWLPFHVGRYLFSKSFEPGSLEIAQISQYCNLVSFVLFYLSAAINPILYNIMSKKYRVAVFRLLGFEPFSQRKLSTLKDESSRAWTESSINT
Chain of Mu-type opioid receptor (P35372 whole entry): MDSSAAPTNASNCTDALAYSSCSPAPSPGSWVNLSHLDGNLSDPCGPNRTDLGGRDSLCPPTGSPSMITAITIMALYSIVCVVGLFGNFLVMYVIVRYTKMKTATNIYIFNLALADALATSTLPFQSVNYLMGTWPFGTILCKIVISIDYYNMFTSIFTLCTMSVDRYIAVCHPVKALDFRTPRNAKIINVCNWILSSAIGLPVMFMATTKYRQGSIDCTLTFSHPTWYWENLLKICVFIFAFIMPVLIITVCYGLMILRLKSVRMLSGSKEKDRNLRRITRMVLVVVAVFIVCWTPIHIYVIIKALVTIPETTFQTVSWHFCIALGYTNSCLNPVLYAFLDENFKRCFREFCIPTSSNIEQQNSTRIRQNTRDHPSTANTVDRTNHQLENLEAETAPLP

As for `CCc1nn(CCCN2CCN(c3cccc(Cl)c3)CC2)c(=O)n1CCOc1ccccc1` [NEFAZODONE], the AC50 at Adenosine receptor A2a was greater than 30 µM; in assay [1], greater than 10 µM; in assay [2], greater than 30 µM; in assay [3] it was greater than 10 µM; in [4] it was greater than 30 µM; in assay [5], greater than 10 µM.

On to `CNC(=O)c1cc(Oc2ccc(NC(=O)Nc3ccc(Cl)c(C(F)(F)F)c3)cc2)ccn1` [SORAFENIB], for which the concentration at half-maximal activity (AC50) at Adenosine receptor A2a is greater than 30 µM; in assay [1], greater than 30 µM; in [2], 11 µM; in assay [3], greater than 30 µM; in assay [6], greater than 30 µM; in assay [4], greater than 30 µM. The AC50 was greater than 30 µM in assay [5], 6.85 µM in [7] and greater than 30 µM in [8].

Regarding `CS(=O)(=O)c1ccc([C@@H](O)[C@@H](CO)NC(=O)C(Cl)Cl)cc1` [THIAMPHENICOL], the AC50 (on Adenosine receptor A2a; in [1]; in assay [2]; in [6]; in assay [4]; in [5]) was greater than 30 µM in each case. Further, the concentration at half-maximal activity (AC50) (at Mu-type opioid receptor; in assay [9]; on Thromboxane A2 receptor; in assay [7]; in assay [8]) was greater than 30 µM throughout.

Consider `CCc1ccc(CCOc2ccc(CC3SC(=O)NC3=O)cc2)nc1` (stereo not given) [PIOGLITAZONE], for which the AC50 on Adenosine receptor A2a is greater than 30 µM; in assay [1], greater than 10 µM; in assay [2], greater than 30 µM; in [6], greater than 10 µM; in [4], greater than 30 µM; in [5] it was greater than 10 µM. Moreover, the concentration at half-maximal activity (AC50) (at Mu-type opioid receptor; in assay [9]; at Thromboxane A2 receptor; in assay [7]; in assay [8]) was greater than 30 µM throughout.

For `N[C@@H](C(=O)N[C@@H]1C(=O)N2C(C(=O)O)=C(Cl)CS[C@H]12)c1ccccc1` [CEFACLOR ANHYDROUS], the AC50 (at Adenosine receptor A2a; in assay [2]; in assay [3]; in assay [6]; in [4]; in assay [10]) was greater than 30 µM each time. Further, the AC50 in [5], in assay [7] and in [8] was greater than 30 µM each time.

Turning to `CN1CCCC(n2nc(Cc3ccc(Cl)cc3)c3ccccc3c2=O)CC1` (stereo not given) [AZELASTINE], the AC50 is greater than 30 µM at Adenosine receptor A2a; greater than 30 µM in [2]; 14 µM in [4]; greater than 30 µM in [10]; 2.4 µM in [5]; 7.3 µM in [7]. The molecule further registered a concentration at half-maximal activity (AC50) in [8] of 4.7 µM.

As for `Nc1nc(N)c2nc(-c3ccccc3)c(N)nc2n1`, the AC50 (at Adenosine receptor A2a; in assay [1]; in assay [2]; in [6]; in assay [4]; in assay [5]) was greater than 30 µM each time. For the same molecule, the AC50 is 29.1 µM on Mu-type opioid receptor; greater than 30 µM in [9]; greater than 30 µM on Thromboxane A2 receptor; greater than 30 µM in [7]; greater than 30 µM in [8].

With `CC(C)C(=O)Nc1ccc([N+](=O)[O-])c(C(F)(F)F)c1` [FLUTAMIDE], the AC50 at Adenosine receptor A2a is greater than 30 µM; in assay [1], greater than 10 µM; in [2], greater than 10 µM; in assay [6], greater than 10 µM; in assay [4] it was greater than 30 µM; in assay [5] it was greater than 30 µM. Besides, the AC50 at Mu-type opioid receptor was greater than 30 µM; in assay [9], greater than 30 µM; on Thromboxane A2 receptor it was greater than 30 µM; in assay [7] it was greater than 10 µM; in assay [8], greater than 10 µM.

Take `NC(=O)c1cnccn1` [PYRAZINAMIDE]: the AC50 (at Adenosine receptor A2a; in assay [1]; in assay [2]; in assay [6]; in [4]; in assay [5]) was greater than 30 µM in each case. Further, the AC50 (at Mu-type opioid receptor; in [9]; at Thromboxane A2 receptor; in assay [7]; in assay [8]) was greater than 30 µM in each case.

For `C#C[C@]1(O)CC[C@H]2[C@@H]3CCc4cc(O)ccc4[C@H]3CC[C@@]21C` [ETHINYL ESTRADIOL], the concentration at half-maximal activity (AC50) at Adenosine receptor A2a is greater than 30 µM; in [1] it was greater than 10 µM; in assay [2], greater than 30 µM; in assay [6], greater than 10 µM; in assay [4], greater than 30 µM; in [5], greater than 30 µM. The AC50 at Mu-type opioid receptor is 20.6 µM; in assay [9], greater than 30 µM; at Thromboxane A2 receptor, greater than 30 µM; in [7], 2.81 µM.

For `Oc1ncnc2[nH]ncc12` [ALLOPURINOL], the half-maximal activity concentration (AC50) at Adenosine receptor A2a is greater than 30 µM; in assay [1], greater than 10 µM; in assay [2], greater than 30 µM; in assay [6], greater than 10 µM; in assay [4], greater than 30 µM; in [5], greater than 30 µM. Also, the AC50 is greater than 30 µM on Mu-type opioid receptor; greater than 30 µM in assay [9]; greater than 30 µM at Thromboxane A2 receptor; greater than 10 µM in assay [7]; greater than 10 µM in [8].

In the case of `CC(N)Cc1ccccc1` (stereo not given) [AMPHETAMINE], the AC50 is 11 µM on Adenosine receptor A2a; greater than 30 µM in assay [2]; greater than 30 µM in assay [3]; greater than 30 µM in [6]; greater than 30 µM in assay [4]; greater than 30 µM in assay [10]. The same molecule returned an AC50 in assay [5] greater than 30 µM.

For `C[C@H]1O[C@H](O[C@H]2[C@H](O)[C@@H](O)[C@@H](O[C@H]3[C@H](O)[C@@H](O)C(O)O[C@@H]3CO)O[C@@H]2CO)[C@H](O)[C@@H](O)[C@@H]1N[C@H]1C=C(CO)[C@@H](O)[C@H](O)[C@H]1O` (stereo not given in full) [ACARBOSE], the AC50 was greater than 30 µM on Adenosine receptor A2a; greater than 30 µM in assay [1]; greater than 30 µM in assay [2]; greater than 10 µM in [6]; greater than 30 µM in assay [4]; greater than 10 µM in assay [5]. In addition, the AC50 is greater than 30 µM on Mu-type opioid receptor; 17.6 µM in assay [9]; greater than 30 µM on Thromboxane A2 receptor; greater than 30 µM in assay [7]; greater than 30 µM in assay [8].
